This assay is described as follows: Inhibition of HCV RNA replication in Huh7 cells.
`Cc1ccc2c(c1)c(O)c(C1=Nc3ccccc3S(=O)(=O)N1)c(=O)n2CCC(C)C` [3-(1,1-dioxo-1,2-dihydrobenzo[1,2,4]thiadiazin-3-yl)-4-hydroxy-6-methyl-1-(3-methylbutyl)-1H-quinolin-2-one]: the EC50 turned out to be 0.18 µM. `CC(C)CCn1c(=O)c(C2=Nc3ccccc3S(=O)(=O)N2)c(O)c2c(F)cccc21` [3-(1,1-dioxo-1,2-dihydrobenzo[1,2,4]thiadiazin-3-yl)-5-fluoro-4-hydroxy-1-(3-methylbutyl)-1H-quinolin-2-one] came in with an EC50 of 0.381 µM. `O=c1c(C2=Nc3ccccc3S(=O)(=O)N2)c(O)c2ccccc2n1CCC1CC1` [1-(2-cyclopropylethyl)-3-(1,1-dioxo-1,4-dihydro-1-benzo[1,2,4]-thiadiazin-3-yl)-4-hydroxy-1H-quinolin-2-one] had an EC50 of 0.152 µM. Under `CCOC(=O)CNc1ccc2c(c1)c(O)c(C1=Nc3ccccc3S(=O)(=O)N1)c(=O)n2CCC(C)C` [[3-(1,1-dioxo-1,4-dihydrobenzo[1,2,4]thiadiazin-3-yl)-4-hydroxy-1-(3-methylbutyl)-1H-dihydroquinolin-6-ylamino]acetic acid ethyl ester] stands 0.265 µM; under `O=c1c(C2=Nc3ccccc3S(=O)(=O)N2)c(O)c2ccccc2n1Cc1ccoc1` [3-(1,1-dioxo-1,4-dihydrobenzo[1,2,4]thiadiazin-3-yl)-1-furan-3-ylmethyl-4-hydroxy-1H-quinolin-2-one], 0.389 µM; under `O=c1c(C2=Nc3ccccc3S(=O)(=O)N2)c(O)c2ccccc2n1CC1CCC1` [1-cyclobutylmethyl-3-(1,1-dioxo-1,2-dihydrobenzo[1,2,4]thiadiazin-3-yl)-4-hydroxy-1-1H-quinolin-2-one], 0.241 µM. For `CC(C)CCn1c(=O)c(C2=Nc3ccccc3S(=O)(=O)N2)c(O)c2cc(Cl)ccc21` [6-chloro-3-(1,1-dioxo-1,2-dihydrobenzo[1,2,4]thiadiazin-3-yl)-4-hydroxy-1-(3-methylbutyl)-1H-quinolin-2-one], the response was half-maximal at 1.2 µM (EC50). Under `CC(C)CCn1c(=O)c(C2=Nc3ccccc3S(=O)(=O)N2)c(O)c2ccccc21` stands 0.417 µM; under `CCCCn1c(=O)c(C2=NS(=O)(=O)c3ccccc3N2)c(O)c2ccccc21` [1-Butyl-3-(1,1-dioxo-1,4-dihydro-1lambda*6*-benzo[1,2,4]thiadiazin-3-yl)-4-hydroxy-1H-quinolin-2-one], 0.444 µM; under `CC(C)CCn1c(=O)c(C2=Nc3ccccc3S(=O)(=O)N2)c(O)c2cc(OCC#N)ccc21` [4-[3-(1,1-dioxo-1,4-dihydrobenzo[1,2,4]thiadiazin-3-yl)-4-hydroxy-1-(3-methylbutyl)-2-oxo-1,2-dihydroquinolin-6-yloxy]acetonitrile], 0.298 µM. `CC(C)CCn1c(=O)c(C2=Nc3ccccc3S(=O)(=O)N2)c(O)c2cc(OCC(N)=O)ccc21` [4-[3-(1,1-dioxo-1,4-dihydrobenzo[1,2,4]thiadiazin-3-yl)-4-hydroxy-1-(3-methylbutyl)-2-oxo-1,2-dihydroquinolin-6-yloxy]acetamide] showed an EC50 of 0.511 µM. Take `O=c1c(C2=Nc3ccccc3S(=O)(=O)N2)c(O)c2ccccc2n1-c1ccccc1` [3-(1,1-dioxo-1,2-dihydrobenzo[1,2,4]thiadiazin-3-yl)-4-hydroxy-1-phenyl-1Hquinolin-2-one]: the response was half-maximal at 0.774 µM (EC50). Compound `CC(C)CCn1c(=O)c(C2=Nc3ccccc3S(=O)(=O)N2)c(O)c2cc(F)ccc21` [3-(1,1-dioxo-1,4-dihydro-1lambda*6*-benzo[1,2,4]thiadiazin-3-yl)-6-fluoro-4-hydroxy-1-(3-methyl-butyl)-1H-quinolin-2-one] had an EC50 of 0.261 µM. The compound `CC(C)CCn1c(=O)c(C2=Nc3ccccc3S(=O)(=O)N2)c(O)c2cc(N)ccc21` [6-amino-3-(1,1-dioxo-1,2-dihydrobenzo[1,2,4]thiadiazin-3-yl)-4-hydroxy-1-(3-methylbutyl)-1H-quinolin-2-one] returned an EC50 of 0.274 µM.

Compound `Nc1ccc2c(c1)c(O)c(C1=Nc3ccccc3S(=O)(=O)N1)c(=O)n2CCC1CC1` [6-Amino-1-(2-cyclopropylethyl)-3-(1,1-dioxo-1,4-dihydrobenzo[1,2,4]thiadiazin-3-] showed an EC50 of 0.157 µM. Under `CC(C)CCn1c(=O)c(C2=Nc3ccccc3S(=O)(=O)N2)c(O)c2cc(NCC(=O)O)ccc21` [[3-(1,1-dioxo-1,4-dihydrobenzo[1,2,4]thiadiazin-3-yl)-4-hydroxy-1-(3-methylbutyl)-1H-dihydroquinolin-6-ylamino]acetic acid] stands 2.49 µM.

Source of the values: BindingDB's records for doi:10.1021/jm050855s (Glaxosmithkline, 2006).
